Measured values reported in ChEMBL document CHEMBL3045056, “Structures and Biological Activities of Phytotoxins Produced by the Plant Pathogenic Fungus Bipolaris cynodontis cynA” (J Pestic Sci, 1998).
Calls of active or inactive are those of the source. No cut-off for these calls is given here.

Columns and labels:
Lolium multiflorum = assay: Phytotoxicity against Lolium multiflorum (Italian ryegrass) seedlings assessed as inhibition of root growth at 100 ppm at 26 degC for 72 hr; assay type: functional, organism-based
Oryza sativa = assay: Phytotoxicity in Oryza sativa (rice) seedlings assessed as assessed as inhibition of root growth at 100 ppm at 26 degC for 72 hr; assay type: functional, organism-based
[1] = Octanol-water partition coefficient, log K of the compound by reversed-phase HPLC; assay type: physicochemical; conditions: read-out: log K

Row | logP [1] | SMILES | inhibition (Lolium multiflorum) | inhibition (Oryza sativa)
1 | 0.31 | CC[C@H](C)[C@@H](O)[C@@H](C)C1=C(CC(C)=O)C(=O)C2=C(O[C@]3(C)CC[C@H]4O[C@@H](C(C)(C)O)CC[C@]4(C)[C@H]3[C@@H]2O)[C@]1(O)OC [COCHLIOQUINOL III] | Active | Active
2 | -0.05 | CC[C@H](C)[C@@H](O)[C@@H](C)C1=CC(=O)C2=C(O[C@]3(C)CC[C@H]4O[C@@H](C(C)(C)O)CC[C@]4(C)[C@H]3[C@@H]2O)[C@]1(O)CC(C)=O [COCHLIOQUINOL II] | Active | Active
3 | -0.238 | CC[C@H](C)C(=O)[C@@H](C)C1=CC(=O)C2=C(O[C@]3(C)CC[C@H]4O[C@@H](C(C)(C)O)CC[C@]4(C)[C@H]3[C@@H]2O)[C@]1(O)CC(C)=O [COCHLIOQUINOL] | Active | Active
4 | 0.437 | CC[C@H](C)C(=O)[C@@H](C)C1=CC(=O)C2=C(O[C@]3(C)CC[C@H]4O[C@@H](C(C)(C)O)CC[C@]4(C)[C@H]3C2)C1=O [COCHLIOQUINONE B] | Active | Active
5 | 0.091 | CC[C@H](C)C(=O)[C@@H](C)C1=CC(=O)C2=C(O[C@]3(C)CC[C@H]4O[C@@H](C(C)(C)O)CC[C@]4(C)[C@H]3[C@@H]2O)C1=O [COCHLIOQUINONE C] | Active | Active
6 | 0.287 | C/C=C(\C)C(=O)[C@@H](C)C1=CC(=O)C2=C(O[C@]3(C)CC[C@H]4O[C@@H](C(C)(C)O)CC[C@]4(C)[C@H]3C2)C1=O [COCHLIOQUINONE D] | Active | Active
7 | 0.013 | CC[C@H](C)C(=O)[C@@H](C)C1=CC(=O)C2=C(O[C@]3(C)CC[C@H]4O[C@@H](C(C)(C)O)C[C@H](O)[C@]4(C)[C@H]3C2)C1=O [COCHLIOQUINONE E] | Active | Active
8 | 0.699 | CC[C@H](C)[C@@H](OC(C)=O)[C@@H](C)c1cc(O)c2c(c1O)O[C@]1(C)CC[C@H]3O[C@@H](C(C)(C)O)CC[C@]3(C)[C@H]1C2=O [ISOCOCHLIOQUINONE A] | Active | Active
9 | 0.482 | CC[C@H](C)C(=O)[C@@H](C)c1cc(O)c2c(c1O)O[C@]1(C)CC[C@H]3O[C@@H](C(C)(C)O)CC[C@]3(C)[C@H]1C2=O [ISOCOCHLIOQUINONE C] | Active | Active

Row | SMILES | logP [1] | inhibition (Lolium multiflorum) | inhibition (Oryza sativa)
10 | CC[C@H](C)[C@@H](OC(C)=O)[C@@H](C)C1=CC(=O)C2=C(O[C@]3(C)CC[C@H]4O[C@@H](C(C)(C)O)CC[C@]4(C)[C@H]3[C@@H]2O)C1=O [COCHLIOQUINONE A] | 0.337 | Active | Active
11 | C/C=C(\C)[C@@H](OC(C)=O)[C@@H](C)C1=CC(=O)C2=C(O[C@]3(C)CC[C@H]4O[C@@H](C(C)(C)O)CC[C@]4(C)[C@H]3[C@@H]2O)C1=O [STEMPHONE] | 0.224 | Active | Active
